In patent US20260184697A1, “EZH1/2 INHIBITOR, PREPARATION THEREOF, AND USE THEREOF IN ANTI-TUMOR THERAPY” (JIANGSU TASLY DIYI PHARMACEUTICAL CO., LTD., priority 2022, published 2026):

Key:
[1] = target: T1, EZH1/SUZ/EED (Homo sapiens, UniProt O75530+Q15022+Q92800); experiment: Inhibitory effect on EZH1 by the MTase-Glo method (Test Example 1); type: biochemical; settings: EZH1/SUZ/EED 25 nM, H3 peptide 10 μM, SAM 3 μM, 30° C. 3 h, read-out: Test Example 1 WT EZH1 IC50
T1 construct: purchased BPS 51006
Experimental: (§1) The compound was dissolved in DMSO, and the compound was serially diluted using ECHO665 and transferred to a 384-well reaction plate (Corning, 3824). A sample containing only DMSO was added as a positive control (maximum signal control) and a negative control (minimum signal control), while ensuring that the final DMSO content in each reaction well was 0.5%. The protein was configured in reaction buffer (50 mM Bicine, 0.01% Triton X-100, 1 mM DTT, 0.01% BSA, pH 7.6), such that the final reaction concentrations of EZH2/SUZ/EED (BPS, 51003) protein solution and EZH1/SUZ/EED (BPS, 51006) were 6.25 nM and 25 nM, respectively. The negative control (minimum signal control) used an equal amount of buffer instead of protein solution. The prepared protein solution was added to the 384-well reaction plate and pre-incubated at room temperature for 15 minutes. The mixture of the substrate H3 peptide fragment (custom-synthesized by GenScript, biotinylated Histone H3(21-44) peptide ([…]-GG-K(Biotin)-OH)) prepared in the reaction buffer and SAM (Promega, V7601) was added into the 384-well plate, such that the final reaction concentration of H3 peptide fragment was 10 μM, and the final concentration of SAM was 3 μM. The mixture was centrifuged at 1000 rpm for 1 min. The 384-well reaction plate was placed in a constant temperature shaker and incubate at 30° C. for 3 h at a speed of 300 rpm. Then the detection reagent was added according to the experimental process of the kit MTase-Glo (Promega, V7601) and incubated.
(§2) After incubation, read with BMG PHERAStar. The luminescence signals obtained by positive control (maximum signal control) and negative control (minimum signal control) were normalized to obtain the inhibition rate of different concentrations of compounds. Then, the IC50 of the compound on the enzyme activity inhibition was calculated by GraphPad Prism 6 with log(inhibitor) vs. response-Variable slope model fitting. The fitting equation is: Y=Bottom+(Top−Bottom)/(1+10^((Log IC50−X)*HillSlope)), wherein Y represents the known percentage remaining enzyme activity, and X represents the known activity after Log compound concentration.

[2] = target: T2, EZH2/SUZ/EED (Homo sapiens, UniProt O75530+Q15022+Q15910); experiment: Inhibitory effect on EZH2 by the MTase-Glo method (Test Example 1); type: biochemical; settings: EZH2/SUZ/EED 6.25 nM, H3 peptide 10 μM, SAM 3 μM, 30° C. 3 h, read-out: Test Example 1 WT EZH2 IC50
T2 construct: purchased BPS 51003
Experimental: as §1, §2

T1 sequence (Q92800 2-747 limits assumed): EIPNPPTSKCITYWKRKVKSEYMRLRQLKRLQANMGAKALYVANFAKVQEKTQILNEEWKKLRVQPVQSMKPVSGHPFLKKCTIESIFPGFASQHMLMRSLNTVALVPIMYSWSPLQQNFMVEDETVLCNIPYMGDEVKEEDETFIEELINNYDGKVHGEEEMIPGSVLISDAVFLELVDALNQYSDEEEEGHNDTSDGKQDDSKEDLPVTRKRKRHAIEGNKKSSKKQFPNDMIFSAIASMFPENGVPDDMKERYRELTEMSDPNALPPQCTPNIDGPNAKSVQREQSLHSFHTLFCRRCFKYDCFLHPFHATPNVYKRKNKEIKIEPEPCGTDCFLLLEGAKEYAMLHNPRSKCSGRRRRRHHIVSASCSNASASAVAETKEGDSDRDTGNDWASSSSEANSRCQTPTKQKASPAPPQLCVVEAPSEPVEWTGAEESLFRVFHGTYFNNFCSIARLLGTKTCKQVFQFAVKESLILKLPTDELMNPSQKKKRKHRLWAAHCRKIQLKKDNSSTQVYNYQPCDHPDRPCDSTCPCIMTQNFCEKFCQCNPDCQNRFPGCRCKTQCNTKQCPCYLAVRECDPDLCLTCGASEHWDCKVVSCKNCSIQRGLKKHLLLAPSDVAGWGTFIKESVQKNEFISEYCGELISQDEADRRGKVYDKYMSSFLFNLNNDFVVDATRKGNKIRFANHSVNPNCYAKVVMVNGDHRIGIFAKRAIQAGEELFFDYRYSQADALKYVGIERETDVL
T1 sequence (Q15022 2-739 partner limits assumed): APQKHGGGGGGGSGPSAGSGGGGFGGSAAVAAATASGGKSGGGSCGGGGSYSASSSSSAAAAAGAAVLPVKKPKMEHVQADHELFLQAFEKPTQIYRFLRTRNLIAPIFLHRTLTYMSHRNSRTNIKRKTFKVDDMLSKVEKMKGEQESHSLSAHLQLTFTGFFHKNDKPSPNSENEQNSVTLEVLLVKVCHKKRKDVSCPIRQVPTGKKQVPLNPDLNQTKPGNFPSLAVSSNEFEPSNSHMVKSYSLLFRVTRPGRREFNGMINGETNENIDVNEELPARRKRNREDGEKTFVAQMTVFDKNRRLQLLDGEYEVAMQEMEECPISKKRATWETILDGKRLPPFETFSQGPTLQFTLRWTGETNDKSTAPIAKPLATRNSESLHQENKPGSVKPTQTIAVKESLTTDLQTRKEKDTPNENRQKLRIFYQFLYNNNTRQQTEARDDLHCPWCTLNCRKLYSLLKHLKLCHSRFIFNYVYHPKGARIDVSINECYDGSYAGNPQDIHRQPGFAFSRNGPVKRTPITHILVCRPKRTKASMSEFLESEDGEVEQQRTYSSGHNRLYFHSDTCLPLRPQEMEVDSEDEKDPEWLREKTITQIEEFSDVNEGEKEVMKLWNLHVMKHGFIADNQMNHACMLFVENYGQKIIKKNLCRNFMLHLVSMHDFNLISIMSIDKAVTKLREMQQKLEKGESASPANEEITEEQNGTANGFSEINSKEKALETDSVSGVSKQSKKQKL
T1 sequence (O75530 2-441 partner limits assumed): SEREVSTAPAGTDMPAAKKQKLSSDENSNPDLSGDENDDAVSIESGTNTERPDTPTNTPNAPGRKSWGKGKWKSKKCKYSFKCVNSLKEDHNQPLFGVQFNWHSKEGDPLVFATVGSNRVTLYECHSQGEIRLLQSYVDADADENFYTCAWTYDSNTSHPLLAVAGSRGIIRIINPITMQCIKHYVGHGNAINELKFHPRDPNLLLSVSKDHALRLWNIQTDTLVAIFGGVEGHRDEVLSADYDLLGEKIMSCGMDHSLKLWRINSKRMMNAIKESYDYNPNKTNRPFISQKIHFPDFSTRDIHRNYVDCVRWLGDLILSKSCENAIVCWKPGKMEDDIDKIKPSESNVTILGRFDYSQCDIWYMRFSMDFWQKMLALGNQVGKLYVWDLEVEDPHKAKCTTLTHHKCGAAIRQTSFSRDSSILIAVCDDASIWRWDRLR
T2 sequence (Q15910 2-746 limits assumed): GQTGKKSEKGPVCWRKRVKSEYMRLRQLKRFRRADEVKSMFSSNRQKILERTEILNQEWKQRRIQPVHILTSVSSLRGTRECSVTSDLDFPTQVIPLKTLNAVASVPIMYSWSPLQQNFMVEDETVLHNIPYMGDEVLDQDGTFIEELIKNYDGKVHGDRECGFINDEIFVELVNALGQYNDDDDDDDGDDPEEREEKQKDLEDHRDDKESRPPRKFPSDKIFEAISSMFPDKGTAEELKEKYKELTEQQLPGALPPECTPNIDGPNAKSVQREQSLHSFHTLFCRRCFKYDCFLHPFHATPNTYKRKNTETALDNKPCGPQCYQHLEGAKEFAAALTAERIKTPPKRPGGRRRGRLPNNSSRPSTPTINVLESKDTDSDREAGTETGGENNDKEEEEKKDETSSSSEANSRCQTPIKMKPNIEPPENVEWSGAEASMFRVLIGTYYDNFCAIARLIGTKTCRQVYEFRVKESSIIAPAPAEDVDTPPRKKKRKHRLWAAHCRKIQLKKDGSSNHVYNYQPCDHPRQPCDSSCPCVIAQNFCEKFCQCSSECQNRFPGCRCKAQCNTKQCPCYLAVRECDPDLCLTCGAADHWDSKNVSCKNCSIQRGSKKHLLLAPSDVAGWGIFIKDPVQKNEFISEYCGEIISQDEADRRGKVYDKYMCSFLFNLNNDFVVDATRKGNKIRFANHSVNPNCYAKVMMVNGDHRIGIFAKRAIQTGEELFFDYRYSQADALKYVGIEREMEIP
T2 sequence (Q15022 2-739 partner limits assumed): as the sequence (Q15022 2-739 partner limits assumed) above
T2 sequence (O75530 2-441 partner limits assumed): as the sequence (O75530 2-441 partner limits assumed) above

SMILES | IC50 [1] | IC50 [2]
COC1CN([C@H]2CC[C@@H]([C@H]3COc4c(Cl)cc(C(=O)NCc5c([S+](C)[O-])cc(C)[nH]c5=O)c(C)c4O3)CC2)C1 (stereo partly drawn) [Compound 139] | 8.49 µM | 1.26 µM
Cc1cc(C)c(CNC(=O)c2c(C)c3c(c(Cl)c2F)OC[C@H]([C@H]2CC[C@H](N(C)C)CC2)O3)c(=O)[nH]1 [Compound 132] | 0.722 µM | 0.0073 µM
Cc1cc(C)c(CNC(=O)c2cc(Cl)c3c(c2C)OC(C2CCN(C)CC2)CO3)c(=O)[nH]1 (stereo not drawn) [Compound 1] | 1.3 µM | 0.0275 µM
COC1(C(F)(F)F)CN(C2CCC(C3COc4c(Cl)cc(C(=O)NCc5c(C)cc(C)[nH]c5=O)c(C)c4O3)CC2)C1 (single isomer, unassigned) [Compound 68] | > 10 µM | 0.0593 µM
COC1C2CN([C@H]3CC[C@H]([C@H]4COc5c(Cl)cc(C(=O)NCc6c(SC)cc(C)[nH]c6=O)c(C)c5O4)CC3)CC21 (stereo partly drawn) [Compound 44] | 0.0135 µM | –
COC1C[N+]([O-])([C@H]2CC[C@@H]([C@H]3COc4c(Cl)cc(C(=O)NCc5c([S+](C)[O-])cc(C)n(O)c5=O)c(C)c4O3)CC2)C1 (stereo partly drawn) [Compound 136] | 0.192 µM | 0.0425 µM
Cc1cc(C)c(CN(C)C(=O)c2cc(Cl)c3c(c2C)O[C@@H]([C@H]2CC[C@@H](N(C)C)CC2)CO3)c(=O)[nH]1 [Compound 127] | – | 0.0255 µM
CSc1cc(C)[nH]c(=O)c1CNC(=O)c1cc(Cl)c2c(c1C)O[C@H](C1CCN(CC3CC3)CC1)CO2 [Compound 31] | 0.491 µM | 0.0663 µM
[2H]C([2H])([2H])OC1CN([C@H]2CC[C@H]([C@H]3COc4c(Cl)cc(C(=O)NCc5c(SC)cc(C)[nH]c5=O)c(C)c4O3)CC2)C1 [Compound 21] | 0.0189 µM | 0.0064 µM
COc1cc(C)[nH]c(=O)c1CNC(=O)c1cc(Cl)c2c(c1C)O[C@H]([C@H]1CC[C@H](N3CC(OC)C3)CC1)CO2 [Compound 99] | – | 0.0934 µM
Cc1cc(C)c(CNC(=O)c2cc(Cl)c3c(c2Cl)O[C@H]([C@H]2CC[C@@H](N(C)C)CC2)CO3)c(=O)[nH]1 [Compound 142] | 7.61 µM | 1.16 µM
CSc1cc(C)[nH]c(=O)c1CNC(=O)c1cc(Cl)c2c(c1C)O[C@@H]([C@H]1CC[C@H](N3CC(OC4CC4)C3)CC1)CO2 [Compound 10] | – | 0.158 µM
Cc1cc(C)c(CNC(=O)c2cc(Cl)c3c(c2C)O[C@H]([C@H]2CC[C@@H](N4CC5COCC5C4)CC2)CO3)c(=O)[nH]1 (stereo partly drawn) [Compound 74] | > 10 µM | 0.998 µM
Cc1cc(C)c(CNC(=O)c2cc(Cl)c3c(c2Cl)OC[C@@H]([C@H]2CC[C@H](N(C)C)CC2)O3)c(=O)[nH]1 [Compound 148] | 2.83 µM | 0.0671 µM
Cc1cc(C)c(CNC(=O)c2ccc3c(c2C)COC(C)(C2CCC(N(C)C)CC2)O3)c(=O)[nH]1 (stereo not drawn) [Compound 4] | – | 7.21 µM
COc1cc(C)[nH]c(=O)c1CNC(=O)c1cc(Cl)c2c(c1C)O[C@@H]([C@H]1CC[C@H](N3CC4CC4C3)CC1)CO2 (stereo partly drawn) [Compound 114] | 0.267 µM | –
Cc1cc(C)c(CNC(=O)c2cc(Cl)c3c(c2C)O[C@H]([C@H]2CC[C@H](N4CC5COCC5C4)CC2)CO3)c(=O)[nH]1 (stereo partly drawn) [Compound 72] | > 10 µM | 1.25 µM
COCCN(C)[C@H]1CC[C@H]([C@H]2COc3c(Cl)cc(C(=O)NCc4c(OC)cc(C)[nH]c4=O)c(C)c3O2)CC1 [Compound 108] | 0.0693 µM | 0.005 µM
COc1c(Cl)c2c(c(C)c1C(=O)NCc1c(C)cc(C)[nH]c1=O)O[C@@H]([C@H]1CC[C@@H](N(C)C)CC1)CO2 [Compound 134] | 0.125 µM | 0.0066 µM
Cc1cc(C2CC2)c(CNC(=O)c2cc(Cl)c3c(c2C)O[C@@H]([C@H]2CC[C@H](N(C)C)CC2)CO3)c(=O)[nH]1 [Compound 158] | 3.44 µM | –
[2H]C([2H])([2H])Sc1cc(C)[nH]c(=O)c1CNC(=O)c1cc(Cl)c2c(c1C)O[C@@H](C1CCC(N3CC(OC)C3)CC1)CO2 (stereo partly drawn) [Compound 178] | 0.0175 µM | –
Cc1cc(C)c(CNC(=O)c2cc(Cl)c3c(c2C)OC(C2CCC(NC4CC(F)C4)CC2)CO3)c(=O)[nH]1 (single isomer, unassigned) [Compound 65] | 0.641 µM | 0.0297 µM
CON(C)C1CCC(C2COc3c(Cl)cc(C(=O)NCc4c(C)cc(C)[nH]c4=O)c(C)c3O2)CC1 (single isomer, unassigned) [Compound 79] | – | 0.002 µM

SMILES | IC50 [1] | IC50 [2]
CSc1cc(C)[nH]c(=O)c1CNC(=O)c1cc(C#N)c2c(c1C)O[C@@H]([C@H]1CC[C@H](N3CC(OC4CC4)C3)CC1)CO2 [Compound 160] | 0.0316 µM | –
Cc1cc(C)c(CNC(=O)c2cc(Cl)c3c(c2C)OC(C2CCN(C4COC4)CC2)CO3)c(=O)[nH]1 (stereo not drawn) [Compound 84] | – | 0.011 µM
COc1c(Cl)c2c(c(C)c1C(=O)NCc1c(C)cc(C)[nH]c1=O)O[C@@H]([C@H]1CC[C@H](N(C)C)CC1)CO2 [Compound 135] | 5.6 µM | 0.0801 µM
Cc1cc(C)c(CNC(=O)c2cc(Cl)c3c(c2Cl)O[C@@H]([C@H]2CC[C@H](N(C)C)CC2)CO3)c(=O)[nH]1 [Compound 144] | 0.769 µM | 0.0156 µM
Cc1cc(C)c(CNC(=O)c2cc(Cl)c3c(c2C)OC(C2CCC(N4CC(F)C4)CC2)CO3)c(=O)[nH]1 (single isomer, unassigned) [Compound 71] | 0.564 µM | 0.0418 µM
Cc1cc(C)c(CNC(=O)c2cc(Cl)c3c(c2C)O[C@H](C2CCN(C4COC4)CC2)CO3)c(=O)[nH]1 [Compound 89] | – | 1.84 µM
COCCOC1CN([C@H]2CC[C@H]([C@H]3COc4c(Cl)cc(C(=O)NCc5c(OC)cc(C)[nH]c5=O)c(C)c4O3)CC2)C1 [Compound 102] | 0.655 µM | 0.0026 µM
Cc1cc(C)c(CNC(=O)c2cc(Cl)c3c(c2C)OC(C2CCC(NC4CC(F)(F)C4)CC2)CO3)c(=O)[nH]1 (single isomer, unassigned) [Compound 67] | 0.367 µM | 0.0476 µM
Cc1cc(C)c(CNC(=O)c2cc(Cl)c3c(c2C)O[C@H](C2CCN(CC4COC4)CC2)CO3)c(=O)[nH]1 [Compound 87] | – | 0.78 µM
Cc1cc(C2CC2)c(CNC(=O)c2cc(Cl)c3c(c2C)O[C@@H]([C@H]2CC[C@@H](N(C)C)CC2)CO3)c(=O)[nH]1 [Compound 157] | 0.19 µM | –
COC1CN([C@H]2CC[C@H]([C@H]3COc4c(Cl)cc(C(=O)NCc5c([S+](C)[O-])cc(C)[nH]c5=O)c(C)c4O3)CC2)C1 (stereo partly drawn) [Compound 140] | 8.91 µM | 0.897 µM
COc1cc(C)[nH]c(=O)c1CNC(=O)c1cc(Cl)c2c(c1Cl)O[C@@H]([C@H]1CC[C@H](N3CC(OC)C3)CC1)CO2 [Compound 152] | 0.126 µM | –
COC1(C(F)(F)F)CN(C2CCC(C3COc4c(Cl)cc(C(=O)NCc5c(C)cc(C)[nH]c5=O)c(C)c4O3)CC2)C1 (single isomer, unassigned) [Compound 69] | 0.879 µM | 0.0846 µM
COc1cc(C)[nH]c(=O)c1CN(C)C(=O)c1cc(Cl)c2c(c1C)O[C@@H]([C@H]1CC[C@@H](N(C)C)CC1)CO2 [Compound 129] | – | 0.0039 µM
COc1cc(C)[nH]c(=O)c1CNC(=O)c1cc(Cl)c2c(c1C)O[C@H]([C@H]1CC[C@@H](N3CC(OC)C3)CC1)CO2 [Compound 100] | – | 0.128 µM
COc1cc(C)[nH]c(=O)c1CNC(=O)c1cc(Cl)c2c(c1C)O[C@@H](C1CCC(OCCF)CC1)CO2 (stereo partly drawn) [Compound 123] | 0.084 µM | –
COc1cc(C)[nH]c(=O)c1CNC(=O)c1cc(Cl)c2c(c1C)O[C@@H]([C@H]1CC[C@H](N3CC4(CC4)C3)CC1)CO2 [Compound 112] | 0.0499 µM | –
CSc1cc(C)[nH]c(=O)c1CNC(=O)c1cc(C#N)c2c(c1C)O[C@@H]([C@H]1CC[C@H](N3CC(OCCF)C3)CC1)CO2 [Compound 162] | 0.0293 µM | –
COc1cc(C)[nH]c(=O)c1CNC(=O)c1cc(Cl)c2c(c1C)O[C@@H]([C@H]1CC[C@H](N3CC4C(C3)C4OC)CC1)CO2 (stereo partly drawn) [Compound 116] | 0.156 µM | –
Cc1cc(C)c(CNC(=O)c2cc(Cl)c3c(c2C)OC(C2CCN(C(C)C)CC2)CO3)c(=O)[nH]1 (stereo not drawn) [Compound 82] | – | 0.0851 µM
CSc1cc(C)[nH]c(=O)c1CNC(=O)c1cc(Cl)c2c(c1C)O[C@H]([C@H]1CC[C@@H](N3CC(OC4CC4)C3)CC1)CO2 [Compound 13] | – | 0.0177 µM
Cc1cc(C)c(CNC(=O)c2cc(Cl)c3c(c2C)OC(C2CCN(CC4COC4)CC2)CO3)c(=O)[nH]1 (stereo not drawn) [Compound 83] | – | 0.0082 µM
